Patent US20160045513A1, “ISOXAZOLE COMPOUND FOR THE TREATMENT OF CANCER” (Novartis AG, priority 2007, published 2016)

What was measured:
Test in all cases: cell proliferation, tumor derived cell lines
Format in all cases: cell-based
T47D = conditions: Homo sapiens, Breast, 72 or 96 hours exposure
Procedure: (§1) Thirty-seven cancer derived cell lines are used (BT474, MDA-MB-361, MDA-MB-453, SKBr3, T47D, MCF7, MDA-MB-231, MDA-MB-468, SK-MEL-5, A375, MALME-3M, SK-MEL-28, WM266.4, RPMI8226, U266, BE, Colo205, HCT116, HT29, MAWI, RKO, U87MG, HN5, RPMI-8226, A549, MV522, NCI-H1299, NCI-H460, 41M, A2780, CHI, NCI-N87, SKOV3, PC3, MO7e, GIST882 and Baf3) to test the effect of 5-(2,4-Dihydroxy-5-isopropyl-phenyl)-4-(4-morpholin-4-ylmethyl-phenyl)-isoxazole-3-carboxylic acid ethylamide. Cell lines are commercially available from American Type Culture Collection (ATCC). These cell lines cover the following 12 cancer or tumor types: breast, melanoma, multiple myeloma (MM), colon, glioblastoma, head & neck, leukemia, lung, ovarian, prostate, stomach and gastrointestinal stromal tumour (GIST). After division and medium change, cells from stock culture are seeded on cell plates and cultured for about 18 hours to allow cell growth and attachment before starting the assay. On the first day of the assay, 5-(2,4-Dihydroxy-5-isopropyl-phenyl)-4-(4-morpholin-4-ylmethyl-phenyl)-isoxazole-3-carboxylic acid ethylamide is added to the medium at various concentrations up to […]. Cells are cultured up to 72 or 96 hours and cell proliferation is determined using commercially available cell proliferation kits.
(§2) The cells were continually exposed to 5-(2,4-Dihydroxy-5-isopropyl-phenyl)-4-(4-morpholin-4-ylmethyl-phenyl)-isoxazole-3-carboxylic acid ethylamide for either 72 or 96 hours and cell growth was determined by commercially available kits based on either SRB, Alamar blue, methylene blue or WST-1 methods.

A2780 = conditions: Homo sapiens, Ovarian, 72 or 96 hours exposure
Procedure: as §1, §2

MDA-MB-231 = conditions: Homo sapiens, Breast, 72 or 96 hours exposure
Procedure: as §1, §2

MO7e = conditions: 72 or 96 hours exposure
Procedure: as §1, §2

NCI-H1299 = conditions: Homo sapiens, Lung, 72 or 96 hours exposure
Procedure: as §1, §2

MCF7 = conditions: Homo sapiens, Breast, 72 or 96 hours exposure
Procedure: as §1, §2

A375 = conditions: Homo sapiens, A-375, Melanoma, 72 or 96 hours exposure
Procedure: as §1, §2

RPMI-8226 = conditions: Homo sapiens, Leukemia, 72 or 96 hours exposure
Procedure: as §1, §2

MDA-MB-453 = conditions: Homo sapiens, Breast, 72 or 96 hours exposure
Procedure: as §1, §2

NCI-H460 = conditions: Homo sapiens, Lung, 72 or 96 hours exposure
Procedure: as §1, §2

Baf3 = conditions: Mus musculus, Gastrointestinal stromal tumour (GIST), 72 or 96 hours exposure
Procedure: as §1, §2

MAWI = conditions: Colon, 72 or 96 hours exposure
Procedure: as §1, §2

U87MG = conditions: Homo sapiens, U-87 MG, Glioblastoma, 72 or 96 hours exposure
Procedure: as §1, §2

MDA-MB-361 = conditions: Homo sapiens, Breast, 72 or 96 hours exposure
Procedure: as §1, §2

RKO = conditions: Homo sapiens, Colon, 72 or 96 hours exposure
Procedure: as §1, §2

U266 = conditions: Homo sapiens, U-266, Multiple myeloma (MM), 72 or 96 hours exposure
Procedure: as §1, §2

A549 = conditions: Homo sapiens, Lung, 72 or 96 hours exposure
Procedure: as §1, §2

MV522 = conditions: Lung, 72 or 96 hours exposure
Procedure: as §1, §2

SKBr3 = conditions: Homo sapiens, SK-BR-3, Breast, 72 or 96 hours exposure
Procedure: as §1, §2

SK-MEL-28 = conditions: Homo sapiens, Melanoma, 72 or 96 hours exposure
Procedure: as §1, §2

HCT116 = conditions: Homo sapiens, HCT-116, Colon, 72 or 96 hours exposure
Procedure: as §1, §2

Colo205 = conditions: Homo sapiens, COLO 205, Colon, 72 or 96 hours exposure
Procedure: as §1, §2

MALME-3M = conditions: Homo sapiens, Melanoma, 72 or 96 hours exposure
Procedure: as §1, §2

BT474 = conditions: Homo sapiens, BT-474, Breast, 72 or 96 hours exposure
Procedure: as §1, §2

HT29 = conditions: Homo sapiens, HT-29, Colon, 72 or 96 hours exposure
Procedure: as §1, §2

MDA-MB-468 = conditions: Homo sapiens, Breast, 72 or 96 hours exposure
Procedure: as §1, §2

41M = conditions: Homo sapiens, Ovarian, 72 or 96 hours exposure
Procedure: as §1, §2

PC3 = conditions: Homo sapiens, PC-3, Prostate, 72 or 96 hours exposure
Procedure: as §1, §2

CH1 = conditions: Homo sapiens, Ovarian, 72 or 96 hours exposure
Procedure: as §1, §2

HN5 = conditions: Homo sapiens, Head & Neck, 72 or 96 hours exposure
Procedure: as §1, §2

GIST882 = conditions: Homo sapiens, Gastrointestinal stromal tumour (GIST), 72 or 96 hours exposure
Procedure: as §1, §2

BE = conditions: Colon, 72 or 96 hours exposure
Procedure: as §1, §2

## CCNC(=O)c1noc(-c2cc(C(C)C)c(O)cc2O)c1-c1ccc(CN2CCOCC2)cc1 [AUY922, 5-(2,4-Dihydroxy-5-isopropyl-phenyl)-4-(4-morpholin-4-ylmethyl-phenyl)-isoxazole-3-carboxylic acid ethylamide]
T47D
  IC50: 2.6 nM
A2780
  IC50: 6.1 nM
MDA-MB-231
  IC50: 7.7 nM
MO7e
  IC50: 10.6 nM
NCI-H1299
  IC50: 5.7 nM
MCF7
  IC50: 2.3 nM
A375
  IC50: 3 nM
RPMI-8226
  IC50: 6.3 nM
MDA-MB-453
  IC50: 3.9 nM
NCI-H460
  IC50: 14 nM
Baf3
  IC50: 22.4 nM
MAWI
  IC50: 50 nM
U87MG
  IC50: 6 nM
MDA-MB-361
  IC50: 6 nM
RKO
  IC50: 3.1 nM
U266
  IC50: 23.3 nM
A549
  IC50: 11.7 nM
MV522
  IC50: 8.1 nM
SKBr3
  IC50: 2.3 nM
SK-MEL-28
  IC50: 8 nM
HCT116
  IC50: 16 nM
Colo205
  IC50: 6.2 nM
MALME-3M
  IC50: 7.7 nM
BT474
  IC50: 2.8 nM
HT29
  IC50: 30 nM
MDA-MB-468
  IC50: 3.5 nM
41M
  IC50: 3 nM
PC3
  IC50: 5 nM
CH1
  IC50: 2.8 nM
HN5
  IC50: 8 nM
GIST882
  IC50: 6.2 nM
BE
  IC50: 2.8 nM
